Experiments:
HIF = HIF activity reporter assay (single luciferase assay, 4XEPO-HRE-FLuc stable Saos-2 clone 3); assay type: cell-based, human; settings: for reporter signal intensities: FIGS. 9A and B legend
Protocol: To confirm the HIF reporter activity of neomycin-resistant parental population, a single luciferase assay was conducted. Initially, 2.5×10^4 of the cells were plated in wells of a 48-well plates in antibiotic-free DMEM with 10% FBS for 16 hours. One of the plates was then incubated for 24 hours in a normoxic (21% 02) gaseous atmosphere in a humidified CO2 incubator while the other was incubated in a hypoxic (0.5% 02) gaseous environment in a hypoxic chamber (BioSpherix, USA) controlled by an oxygen regulator (ProOx model 110, BioSpherix, USA. After 24 hours of exposure to different oxygen concentrations, Bright-Glo™ Luciferase Assay (Promega, USA) was conducted to analyse the HIF reporter activity. Initially, growth media in each well was discarded and the cells were rinsed once with 300 μl of 1×PBS. Room temperature-equilibrated Glo Lysis Buffer (GLB; 60 μl) was then added into the wells. Plates were then gently rocked on a shaker for 5 min at room temperature. Cell lysis was confirmed visually by observing the wells of the 48-well plate under a light microscope. Thirty microliters of the resulting cell lysates were then transferred into individual glass vials. Bright-Glo™ Assay Reagent was then added into each tube at a 1:1 (v/v) ratio. Luminescence intensity was immediately read and recorded by a Luminometer (Sirius-2, Titertek-Berthold).
(§1) To verify the property of the stable single cell population as an assay system to measure HIF activity, a proof of concept study was performed with commercially available and known HIF inhibitors. […] Treatment of these drugs in certain cancer cells leads to cell death. To confirm that the inhibition of bioluminescence in our cell assay system is due to HIF inhibition rather than this cytotoxic effect, we simultaneously determined the viability of cells under various concentrations of each drug used for the inhibition assay. The 3-(4,5-dimethylthiazol-2-yl)-2,5-[…] bromide MTT assay was used. […] The cells were then incubated in either normoxic or hypoxic conditions for 24 hours. After the treatment, cell culture media was replaced with fresh serum-free DMEM containing 0.5 mg/ml MTT. After 4 hours of incubation in a humidified CO2 incubator at 37° C., formazan precipitates were dissolved with 100 μl of DMSO. The resulting reaction was read using a microplate reader at 570 nm absorbance and 630 nm as the reference wavelength. The half maximal inhibitory concentration (IC50) of each drug towards the cells was determined by plotting graphs using the Graphpad Prism 5 software. HIF inhibitory effects at the various concentrations of drugs tested were also measured using the single luciferase assay system. A correlation between the drugs' effects on cell viability and HIF inhibition was then evaluated.

[1] = system: clone 3 cells (stable Saos-2 osteosarcoma clone); test: MTT cell viability assay; assay type: cell-based, human
Protocol: as §1, with “To confirm that the inhibition of bioluminescence in our cell assay system is due to HIF inhibition rather than this cytotoxic effect, we simultaneously determined the viability of cells under various concentrations of each drug used for the inhibition assay.” left out

CC(C)C[C@H](NC(=O)[C@H](Cc1ccccc1)NC(=O)c1cnccn1)B(O)O [Bortezomib]
reporter signal intensities (HIF): reduction of reporter signal intensities | hypoxia-induced luciferase signal (HIF; clone 3 cells, hypoxia, concentrations of up to 500 nM): significantly reduced | cell viability ([1]; concentrations higher than 500 nM): the inhibition was associated with cell death | cell viability ([1]; concentrations of up to 500 nM): without affecting cell viability

N.N.[Cl][Pt][Cl] [cisplatin]
reporter signal intensities (HIF): reduction of reporter signal intensities | inhibition of luciferase signals (HIF; hypoxic clone 3, 25 μM concentration): ~60%

— patent publication US9995730B2, “Hypoxia Inducible Factor (HIF) Activity Reporter Cell Line” (Universiti Putra Malaysia (UPM), priority 2012, dated 2018)
